Experimental data from US12539264B2, “Composition comprising pentapeptide as active ingredient” (priority 2020, dated 2026).
No end group written: not given here.

Experiments:
SH-SY5Y cells = assay: Intracellular penetration of rhodamine-pentapeptide conjugate (fluorescence microscopy); assay type: cell-based; conditions: rhodamine-peptide conjugate, 4 hours
Procedure: In order to confirm that the pentapeptide of the present invention penetrates into the nerve cells, SH-SY5Y cells were seeded in a 6-well plate at a density of 3×10^5 cells/well and cultured in a 37° C., 5% CO2 incubator for 24 hours, and then the medium was replaced with serum-free medium. After treatment with the rhodamine-peptide conjugate for 4 hours at each concentration, cells were fixed by treatment with 4% paraformaldehyde, and nuclei were stained using a DAPI staining kit (Invitrogen, USA). Intracellular peptide penetration was observed using a fluorescence microscope. Blue represents the nuclei of cells stained with DAPI, and red represents the ‘rhodamine-pentapeptide’ conjugate.

[1] = rat, in vivo
SNARE complex = SNARE complex (Homo sapiens, UniProt Q16623); assay: Inhibition of SNARE complex formation in nerve cells (Western blot, syntaxin 1a antibody); assay type: cell-based
Chain of SNARE complex (Q16623 whole entry, one chain of several): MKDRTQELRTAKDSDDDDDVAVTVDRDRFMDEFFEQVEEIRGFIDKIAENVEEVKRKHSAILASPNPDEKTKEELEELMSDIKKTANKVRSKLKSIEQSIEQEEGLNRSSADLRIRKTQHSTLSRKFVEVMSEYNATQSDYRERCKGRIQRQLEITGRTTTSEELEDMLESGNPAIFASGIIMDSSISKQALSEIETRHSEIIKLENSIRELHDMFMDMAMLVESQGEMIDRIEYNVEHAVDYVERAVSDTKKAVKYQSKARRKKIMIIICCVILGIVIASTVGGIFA

Substance	penetration into nerve cells (SH-SY5Y cells)	penetration into skin tissue [1]	SNARE complex formation (SNARE complex)
KFLIK [pentapeptide, KFLIK]	penetrated into nerve cells	penetrated into the muscle layer of the skin tissue and co-localized with the nerve cell marker	
botulinum toxin			inhibited
